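Assay format: 96-well plates, 48-hour exposure. Here, GI50 denotes the concentration required for 50% inhibition of growth.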 The source made the active and inactive calls. Rule as the data show it: active = GI50 up to about 1.1 µM and inactive = higher.
Tests used:
Assay in all cases: DTP human tumour cell line panel, 48 h
786-0 = system: 786-0
A549 = system: A549
ACHN = system: ACHN
BT-549 = system: BT-549
CAKI-1 = system: CAKI-1
CCRF-CEM = system: CCRF-CEM
COLO 205 = system: COLO 205
DU-145 = system: DU-145
EKVX = system: EKVX
HCC 2998 = system: HCC 2998
HCT-116 = system: HCT-116
HCT-15 = system: HCT-15
HOP-62 = system: HOP-62
HOP-92 = system: HOP-92
HT-29 = system: HT-29
Hs-578T = system: Hs-578T
IGROV-1 = system: IGROV-1
K562 = system: K562
KM12 = system: KM12
M14 = system: M14
MCF7 = system: MCF7
MDA-MB-231 = system: MDA-MB-231
MDA-MB-435 = system: MDA-MB-435
MDA-N = system: MDA-N
MOLT-4 = system: MOLT-4
NCI-H226 = system: NCI-H226
NCI-H23 = system: NCI-H23
NCI-H460 = system: NCI-H460
NCI-H522 = system: NCI-H522
NCI/ADR-RES = system: NCI/ADR-RES
OVCAR-3 = system: OVCAR-3
OVCAR-4 = system: OVCAR-4
OVCAR-5 = system: OVCAR-5
OVCAR-8 = system: OVCAR-8
PC-3 = system: PC-3
RPMI-8226 = system: RPMI-8226
RXF 393 = system: RXF 393
SF-268 = system: SF-268
SF-295 = system: SF-295
SF-539 = system: SF-539
SK-MEL-28 = system: SK-MEL-28
SK-MEL-2 = system: SK-MEL-2
SK-MEL-5 = system: SK-MEL-5
SK-OV-3 = system: SK-OV-3
SN12C = system: SN12C
SNB-19 = system: SNB-19
SNB-75 = system: SNB-75
SR = system: SR
SW-620 = system: SW-620
U-251 = system: U-251
UACC-257 = system: UACC-257
UACC-62 = system: UACC-62
UO-31 = system: UO-31
LOX IMVI = system: LOX IMVI
Malme-3M = system: Malme-3M
T47D = system: T47D
TK-10 = system: TK-10
HL-60 = system: HL-60

C/C(=N\Nc1nc2ccccc2s1)c1cccnn1
GI50 (786-0): 1.26 µM (inactive) | GI50 (A549): 2.23 µM (inactive) | GI50 (ACHN): 0.718 µM (active) | GI50 (BT-549): 5.32 µM (inactive) | GI50 (CAKI-1): 1.04 µM (active) | GI50 (CCRF-CEM): 0.381 µM (active) | GI50 (COLO 205): 2.48 µM (inactive) | GI50 (DU-145): 1.92 µM (inactive) | GI50 (EKVX): 0.753 µM (active) | GI50 (HCC 2998): 13.2 µM (inactive) | GI50 (HCT-116): 2.05 µM (inactive) | GI50 (HCT-15): 0.333 µM | GI50 (HOP-62): 1.63 µM (inactive) | GI50 (HOP-92): 2.32 µM (inactive) | GI50 (HT-29): 3.24 µM (inactive) | GI50 (Hs-578T): 12.1 µM (inactive) | GI50 (IGROV-1): 0.581 µM (active) | GI50 (K562): 3.23 µM (inactive) | GI50 (KM12): 2.77 µM (inactive) | GI50 (M14): 3.05 µM (inactive) | GI50 (MCF7): 2.75 µM (inactive) | GI50 (MDA-MB-231): 2.28 µM (inactive) | GI50 (MDA-MB-435): 4.26 µM (inactive) | GI50 (MDA-N): 8.63 µM (inactive) | GI50 (MOLT-4): 3.91 µM (inactive) | GI50 (NCI-H226): 2.75 µM (inactive) | GI50 (NCI-H23): 2.61 µM (inactive) | GI50 (NCI-H460): 2.65 µM (inactive) | GI50 (NCI-H522): 1.72 µM (inactive) | GI50 (NCI/ADR-RES): 2.31 µM (inactive) | GI50 (OVCAR-3): 0.406 µM (active) | GI50 (OVCAR-4): 76 µM (inactive) | GI50 (OVCAR-5): 4.02 µM (inactive) | GI50 (OVCAR-8): 1.66 µM (inactive) | GI50 (PC-3): 1.79 µM (inactive) | GI50 (RPMI-8226): 1.4 µM (inactive) | GI50 (RXF 393): 17.1 µM (inactive) | GI50 (SF-268): 1.56 µM (inactive) | GI50 (SF-295): 2.31 µM (inactive) | GI50 (SF-539): 3.55 µM (inactive) | GI50 (SK-MEL-28): 4.56 µM (inactive) | GI50 (SK-MEL-2): 3.05 µM (inactive) | GI50 (SK-MEL-5): 1.31 µM (inactive) | GI50 (SK-OV-3): 4.29 µM (inactive) | GI50 (SN12C): 2.42 µM (inactive) | GI50 (SNB-19): 8.2 µM (inactive) | GI50 (SNB-75): 5.5 µM (inactive) | GI50 (SR): 0.476 µM (active) | GI50 (SW-620): 3.69 µM (inactive) | GI50 (U-251): 3.68 µM (inactive) | GI50 (UACC-257): 2.48 µM (inactive) | GI50 (UACC-62): 2.7 µM (inactive) | GI50 (UO-31): 1.24 µM (inactive)

CC[n+]1[b-](C(C)(C)C)n(/N=C/C(C)(C)C)[b-](C(C)(C)C)[n+]1CC
GI50 (786-0): > 100 µM (inactive) | GI50 (A549): > 100 µM (inactive) | GI50 (ACHN): > 100 µM (inactive) | GI50 (BT-549): > 100 µM (inactive) | GI50 (CAKI-1): > 100 µM (inactive) | GI50 (CCRF-CEM): 66.1 µM (inactive) | GI50 (COLO 205): > 100 µM (inactive) | GI50 (EKVX): > 100 µM (inactive) | GI50 (HCC 2998): > 100 µM (inactive) | GI50 (HCT-116): > 100 µM (inactive) | GI50 (HCT-15): > 100 µM | GI50 (HOP-62): > 100 µM (inactive) | GI50 (HT-29): > 100 µM (inactive) | GI50 (Hs-578T): > 100 µM (inactive) | GI50 (IGROV-1): > 100 µM (inactive) | GI50 (K562): 67.1 µM (inactive) | GI50 (KM12): > 100 µM (inactive) | GI50 (LOX IMVI): > 100 µM (inactive) | GI50 (M14): > 100 µM (inactive) | GI50 (MCF7): > 100 µM (inactive) | GI50 (MDA-MB-231): > 100 µM (inactive) | GI50 (MDA-MB-435): > 100 µM (inactive) | GI50 (MDA-N): > 100 µM (inactive) | GI50 (MOLT-4): > 100 µM (inactive) | GI50 (Malme-3M): > 100 µM (inactive) | GI50 (NCI-H226): > 100 µM (inactive) | GI50 (NCI-H23): > 100 µM (inactive) | GI50 (NCI-H460): > 100 µM (inactive) | GI50 (NCI-H522): > 100 µM (inactive) | GI50 (NCI/ADR-RES): > 100 µM (inactive) | GI50 (OVCAR-3): > 100 µM (inactive) | GI50 (OVCAR-4): > 100 µM (inactive) | GI50 (OVCAR-5): > 100 µM (inactive) | GI50 (OVCAR-8): > 100 µM (inactive) | GI50 (PC-3): > 100 µM (inactive) | GI50 (RXF 393): > 100 µM (inactive) | GI50 (SF-268): > 100 µM (inactive) | GI50 (SF-295): > 100 µM (inactive) | GI50 (SF-539): > 100 µM (inactive) | GI50 (SK-MEL-28): > 100 µM (inactive) | GI50 (SK-MEL-2): 70.3 µM (inactive) | GI50 (SK-MEL-5): > 100 µM (inactive) | GI50 (SN12C): > 100 µM (inactive) | GI50 (SNB-19): > 100 µM (inactive) | GI50 (SNB-75): > 100 µM (inactive) | GI50 (SR): > 100 µM (inactive) | GI50 (SW-620): > 100 µM (inactive) | GI50 (T47D): > 100 µM (inactive) | GI50 (TK-10): > 100 µM (inactive) | GI50 (U-251): > 100 µM (inactive) | GI50 (UACC-257): > 100 µM (inactive) | GI50 (UACC-62): > 100 µM (inactive) | GI50 (UO-31): > 100 µM (inactive)

CCSCCCSCCSCC
GI50 (786-0): > 100 µM (inactive) | GI50 (A549): > 100 µM (inactive) | GI50 (BT-549): > 100 µM (inactive) | GI50 (CCRF-CEM): > 100 µM (inactive) | GI50 (COLO 205): > 100 µM (inactive) | GI50 (DU-145): > 100 µM (inactive) | GI50 (EKVX): > 100 µM (inactive) | GI50 (HCC 2998): > 100 µM (inactive) | GI50 (HCT-116): > 100 µM (inactive) | GI50 (HCT-15): > 100 µM | GI50 (HL-60): 26.4 µM (inactive) | GI50 (HOP-62): > 100 µM (inactive) | GI50 (HT-29): > 100 µM (inactive) | GI50 (IGROV-1): > 100 µM (inactive) | GI50 (K562): > 100 µM (inactive) | GI50 (KM12): > 100 µM (inactive) | GI50 (LOX IMVI): > 100 µM (inactive) | GI50 (M14): > 100 µM (inactive) | GI50 (MCF7): > 100 µM (inactive) | GI50 (MDA-MB-231): > 100 µM (inactive) | GI50 (MDA-MB-435): > 100 µM (inactive) | GI50 (MDA-N): > 100 µM (inactive) | GI50 (MOLT-4): 17.2 µM (inactive) | GI50 (NCI-H23): > 100 µM (inactive) | GI50 (NCI-H460): > 100 µM (inactive) | GI50 (NCI-H522): > 100 µM (inactive) | GI50 (OVCAR-3): > 100 µM (inactive) | GI50 (OVCAR-4): 81.5 µM (inactive) | GI50 (OVCAR-5): > 100 µM (inactive) | GI50 (OVCAR-8): > 100 µM (inactive) | GI50 (PC-3): > 100 µM (inactive) | GI50 (SF-268): > 100 µM (inactive) | GI50 (SF-295): > 100 µM (inactive) | GI50 (SF-539): > 100 µM (inactive) | GI50 (SK-MEL-28): > 100 µM (inactive) | GI50 (SK-MEL-5): > 100 µM (inactive) | GI50 (SK-OV-3): > 100 µM (inactive) | GI50 (SN12C): > 100 µM (inactive) | GI50 (SNB-19): > 100 µM (inactive) | GI50 (SNB-75): > 100 µM (inactive) | GI50 (SW-620): > 100 µM (inactive) | GI50 (T47D): > 100 µM (inactive) | GI50 (TK-10): > 100 µM (inactive) | GI50 (U-251): > 100 µM (inactive) | GI50 (UACC-257): > 100 µM (inactive) | GI50 (UACC-62): > 100 µM (inactive) | GI50 (UO-31): > 100 µM (inactive)

— ChEMBL document CHEMBL1201862, “PubChem BioAssay data set” (2004)
